From US20110189122A1, “Use of Molt-Accelerating Compounds, Ecdysteroids, Analogs Thereof, and Chitin Synthesis Inhibitors for Controlling Termites” (priority 2004, published 2011)

How the values were obtained:
[1] = test system: R. flavipes; assay: Feeding ecdysteroid-treated filter paper to subterranean termites, 12-day exposure; assay type: in vivo; details: for days of exposure until some termites exhibited the jackknife position (incomplete molting): treated filter paper
Description: (§1) Termites were collected from three colonies each of C. formosanus and R. flavipes and were held in the laboratory at 26±1° C. and 98±2% RH before use Technical grade ecdysone was dissolved in methanol to obtain 0.1, 1, 10, 100 and 1,000-ppm solutions by serial dilution. Methanol solutions (i.e., 0 ppm AI) were used as untreated controls. Each concentration solution (0.2 ml) was pipetted onto […] Whatman No. 1 filter paper fitted into 5-cm-diameter glass Petri dishes and allowed to evaporate overnight.
(§2) This filter paper served as the cellulose food source for twenty-five termites, plus one soldier for R. flavipes or three soldiers for C. formosanus, which were introduced into each Petri dish after moistening the filter paper with 0.175 ml deionized water. For each species, two subsamples each of three colonies were used per concentration for a total of 72 experimental units. The bioassay units was held at 26±1° C. Observation was made daily for 12 days. Termites showing symptoms of incomplete molting were counted, and dead termites were removed from each unit. […] For each treatment and species combination, mean percent termites showing symptoms of incomplete molting and mortality among concentrations at 12 day were arcsine-root transformed and subjected to the analysis of variance (ANOVA). Significant differences (α=0.05) among concentrations were separated using Fisher's least significant difference (LSD) test (SAS Institute 1999).
(§3) 20-hydroxyecdysone is an ecdysone byproduct. Technical grade 20-hydroxyecdysone (20 E) was dissolved and used in the same manners as was ecdysone, as discussed above in Example 1.

[2] = test system: C. formosanus; assay: as above; assay type: in vivo; details: for days of exposure until some termites exhibited the jackknife position (incomplete molting): treated filter paper
Description: as §1, §2, §3

[3] = test system: eastern subterranean termites (Reticulitermes flavipes); details: wood slice feeding blocks vacuum-impregnated with halofenozide, choice test; cited from earlier work
[4] = test system: eastern subterranean termites (EST), Reticulitermes flavipes (Kollar); assay: Test #2 Choice Feeding Bait Test, Halofenozide+Noviflumuron (treated filter paper vs. untreated SYP); assay type: in vivo; details: for mg consumed after 14 days (Mean ± SEM), untreated SYP: SYP block offered against FP with single active 5000 ppm; for No. Survivors/50 after 14 days (Mean ± SEM) / % Surviving / mg consumed after 14 days (Mean ± SEM), treated FP: single active 5000 ppm on filter paper; for % Surviving: 14 days; for mg consumed after 14 days (Mean ± SEM), treated FP: choice vs. SYP
Description: (§4) Test #1 Choice Feeding Bait Test, Halofenozide+Hexaflumuron. A paired choice feeding test was conducted to compare feeding response and resultant mortality caused by various combinations of technical grade halofenozide and hexaflumuron treated on filter paper (acetone carrier). The test apparatus consisted of two round plastic containers connected by a 7-cm long piece of 2.5-mm diameter (ID) tygon tubing. A known number of termite workers were introduced into a central harborage chamber (5.5 cm round container with ventilated lid) containing a vermiculite/sand/water mixture of ca. 1:1:1. The central harborage chamber was connected by the tygon tubing to the bait foraging chamber (without sand/vermiculite matrix) containing the paired feeding choices.
Test #2. Choice Feeding Bait Test, Halofenozide+Noviflumuron. A standard paired choice feeding test using the same methods described in Test #1 was conducted to compare feeding response and resultant mortality caused by various combinations of technical grade halofenozide and noviflumuron treated on filter paper (acetone carrier). EST were given the choice to feed between untreated blocks of southern yellow pine (SYP) and treated filter paper. Halofenozide and noviflumuron were tested individually at concentrations of 5000 ppm. Five thousand ppm (5000-ppm) noviflumuron was also tested in combination with 1250, 2500, or 5000 ppm halofenozide. After fourteen days, all treatments were removed, oven-dried, and weighed for consumption. Because of the rapid activity of noviflumuron, surviving termites were also counted in each replicate after only 14 days of feeding. Each treatment was replicated four times with 50 termites per replicate.

[5] = test system: C. formosanus; details: C. formosanus, 10,000 ppm, similar condition; cited from earlier work
[6] = test system: eastern subterranean termites (EST), Reticulitermes flavipes (Kollar); assay: Test #1 Choice Feeding Bait Test, Halofenozide+Hexaflumuron (treated filter paper vs. untreated SYP); assay type: in vivo; details: for % Surviving: 26 days; for mg consumed after 12 days (Mean ± SEM), treated FP: choice vs. SYP
Description: as §4
ESTs were given the choice to feed between untreated blocks of southern yellow pine (SYP) and treated filter paper. Halofenozide was tested individually at concentrations of 1250, 2500, and 5000 ppm. Hexaflumuron was tested at 5000 ppm, and also combined with each of the aforementioned concentrations of halofenozide. For comparative purposes, technical grade noviflumuron were also tested at 5000 ppm. After twelve days, all treatments were removed, oven-dried, and weighed for consumption. Filter paper was placed in all bioassay units that were held for fourteen more days. Surviving termites were then counted in each replicate. Thus, survival was counted at 26 days after initial exposure to the toxicant. Each treatment was replicated four times with 50 termites per replicate.

[7] = test system: Amitermes wheeleri; assay: Forced feeding test on treated purified cellulosic bait; assay type: in vivo; details: 5000 ppm noviflumuron on cellulosic bait
Description: A forced feeding test was conducted to compare mortality caused by different active ingredients treated on purified cellulosic bait. The test apparatus was the same as that described in Example 5. Noviflumuron was tested on the bait at 5000-ppm concentration, and also in combination with 5000-ppm Halofenozide Blank bait was also tested. Surviving termites were also counted at 28 days after initial exposure to the toxicant.

[8] = R. flavipes, 0.1 ppm, 12-day exposure
[9] = R. flavipes, 1 ppm, 12-day exposure
[10] = R. flavipes, 10 ppm, 12-day exposure
[11] = R. flavipes, 100 ppm, 12-day exposure
[12] = R. flavipes, 1,000 ppm, 12-day exposure
[13] = C. formosanus, 0.1 ppm, 12-day exposure
[14] = C. formosanus, 1 ppm, 12-day exposure
[15] = C. formosanus, 10 ppm, 12-day exposure
[16] = C. formosanus, 100 ppm, 12-day exposure
[17] = C. formosanus, 1,000 ppm, 12-day exposure
[18] = C. formosanus, 1,000 ppm, 12-day exposure, listed as 20 E
[19] = SYP block offered against FP with single active 5000 ppm
[20] = single active 1250 ppm on filter paper
[21] = single active 2500 ppm on filter paper
[22] = single active 5000 ppm on filter paper

| SMILES | % Incomplete Molting (±SE) [1, 8] [a %] | % Incomplete Molting (±SE) [1, 9] [a %] | % Incomplete Molting (±SE) [1, 10] [a %] | % Incomplete Molting (±SE) [1, 11] | days of exposure until some termites exhibited the jackknife position (incomplete molting) ([1]; R. flavipes) | % Incomplete Molting (±SE) [2, 13] [a %] | % Incomplete Molting (±SE) [2, 14] [a %] | % Incomplete Molting (±SE) [2, 15] [a %] | % Incomplete Molting (±SE) [2, 16] [a %] | days of exposure until some termites exhibited the jackknife position (incomplete molting) ([2]; C. formosanus) | mg consumed after 14 days (Mean ± SEM), untreated SYP [4] | No. Survivors/50 after 14 days (Mean ± SEM) [4] | % Surviving [4] [%] | mg consumed after 14 days (Mean ± SEM), treated FP [4] [a mg] | mg consumed after 12 days (Mean ± SEM), untreated SYP [6, 19] | No. Survivors/50 after 26 days (Mean ± SEM) [6, 22] | % Surviving [6, 22] [%] | mg consumed after 12 days (Mean ± SEM), treated FP [6, 22] [a mg] | other results |
| --- | --- | --- | --- | --- | --- | --- | --- | --- | --- | --- | --- | --- | --- | --- | --- | --- | --- | --- | --- |
| CC(C)(O)CC[C@@H](O)[C@](C)(O)[C@H]1CC[C@@]2(O)C3=CC(=O)[C@@H]4C[C@@H](O)[C@@H](O)C[C@]4(C)[C@H]3CC[C@]12C [20-hydroxyecdysone] | 0.00 ± 0.00 | 0.00 ± 0.00 | 0.00 ± 0.00 | 3.85 ± 1.40ab % | approximately 7 days | 0.00 ± 0.00 | 0.00 ± 0.00 | 0.00 ± 0.00 | 2.38 ± 1.19 | approximately 7 days | – | – | – | – | – | – | – | – | % Mortality (±SE) [1, 8]: 0.64 ± 0.64a %; % Mortality (±SE) [1, 9]: 0.00 ± 0.00a %; % Mortality (±SE) [1, 10]: 0.64 ± 0.64a %; % Mortality (±SE) [1, 11]: 76.19 ± 11.28b %; % Incomplete Molting (±SE) [1, 12]: 7.69 ± 3.29b %; % Mortality (±SE) [1, 12]: 100%; % Incomplete Molting (±SE) ([1]; R. flavipes, 1,000 ppm, 12-day exposure, listed as 20 E): evident; % Mortality (±SE) [2, 13]: 1.19 ± 0.75ab %; % Mortality (±SE) [2, 14]: 10.12 ± 9.42bc %; % Mortality (±SE) [2, 15]: 3.57 ± 2.26abc %; % Mortality (±SE) [2, 16]: 11.90 ± 5.43c %; % Incomplete Molting (±SE) [2, 17]: 26.19 ± 6.09b %; % Mortality (±SE) [2, 17]: 74.40 ± 3.62d %; % Incomplete Molting (±SE) [2, 18]: evident; % Mortality (±SE) [2, 18]: ca. 75% |
| CC(C)(C)N(NC(=O)c1ccc(Cl)cc1)C(=O)c1ccccc1 [Halofenozide, halofenozide] | – | – | – | – | – | – | – | – | – | – | 8.35 ± 3.91 a mg | 22.25 ± 5.36 b | 44.5 | 10.12 ± 1.48 | 14.97 ± 3.85 a mg | 23.25 ± 7.88 days | 46.5 | 9.33 ± 1.41 | concentrations at which feeding deterrence occurs [3]: greater than 4,000 ppm; mortality [5]: 50%; mg consumed after 12 days (Mean ± SEM), untreated SYP ([6]; SYP block offered against FP with single active 1250 ppm): 9.49 ± 2.57 a mg; mg consumed after 12 days (Mean ± SEM), untreated SYP ([6]; SYP block offered against FP with single active 2500 ppm): 7.92 ± 2.13 a mg; No. Survivors/50 after 26 days (Mean ± SEM) [6, 20]: 45.00 ± 2.04 a; % Surviving [6, 20]: 90.0%; mg consumed after 12 days (Mean ± SEM), treated FP [6, 20]: 16.05 ± 3.39 a mg; No. Survivors/50 after 26 days (Mean ± SEM) [6, 21]: 33.75 ± 6.56 bc; % Surviving [6, 21]: 67.5%; mg consumed after 12 days (Mean ± SEM), treated FP [6, 21]: 18.70 ± 4.32 a mg |
| O=C(NC(=O)c1c(F)cccc1F)Nc1cc(Cl)c(OC(F)(F)C(F)F)c(Cl)c1 [Hexaflumuron, hexaflumuron] | – | – | – | – | – | – | – | – | – | – | – | – | – | – | 9.28 ± 3.55 b mg | 32.5 ± 5.48 bc | 65.0 | 21.20 ± 2.06 | – |
| O=C(NC(=O)c1c(F)cccc1F)Nc1cc(Cl)c(OC(F)(F)C(F)C(F)(F)F)c(Cl)c1F (stereo not shown) [Noviflumuron, noviflumuron] | – | – | – | – | – | – | – | – | – | – | 2.58 ± 1.03 b mg | 13.50 ± 3.52 bc | 27.0 | 14.58 ± 2.20 | 1.77 ± 1.71 b mg | 5.00 ± 3.72 e | 10.0 | 16.17 ± 3.64 | % Surviving ([4]; listed as noviflumuron): 27%; No. Survivors/30 after 28 days [7]: reduced termite survivorship in half; % Surviving ([7]; 28 days): 43%; No. Survivors/30 after 28 days ([7]; listed as noviflumuron): 12 |
| C[C@H]([C@H](O)CCC(C)(C)O)[C@H]1CC[C@@]2(O)C3=CC(=O)[C@@H]4C[C@@H](O)[C@@H](O)C[C@]4(C)[C@H]3CC[C@]12C [ecdysone] | 0.00 ± 0.00 | 0.00 ± 0.00 | 0.00 ± 0.00 | 0.00 ± 0.00a % | approximately 7 days | 0.00 ± 0.00 | 0.00 ± 0.00 | 2.38 ± 2.38 | 8.33 ± 5.95 | approximately 7 days | – | – | – | – | – | – | – | – | mortality at 0.1 ppm ([1]; Reticulitermes flavipes, 288 h, R. flavipes, 0.1 ppm, 12-day exposure, read-out: % Mortality (±SE)): 0%; mortality at 1 ppm ([1]; Reticulitermes flavipes, 288 h, R. flavipes, 1 ppm, 12-day exposure, read-out: % Mortality (±SE)): 0%; mortality at 10 ppm ([1]; Reticulitermes flavipes, 288 h, R. flavipes, 10 ppm, 12-day exposure, read-out: % Mortality (±SE)): 0%; mortality at 100 ppm ([1]; Reticulitermes flavipes, 288 h, R. flavipes, 100 ppm, 12-day exposure, read-out: % Mortality (±SE)): 60.3 ± 18.1%; mortality at 1000 ppm ([1]; Reticulitermes flavipes, 288 h, R. flavipes, 1,000 ppm, 12-day exposure, read-out: % Mortality (±SE)): 100%; mortality at 0.1 ppm ([2]; Coptotermes formosanus, 288 h, C. formosanus, 0.1 ppm, 12-day exposure, read-out: % Mortality (±SE)): 1.79 ± 1.22%; mortality at 1 ppm ([2]; Coptotermes formosanus, 288 h, C. formosanus, 1 ppm, 12-day exposure, read-out: % Mortality (±SE)): 1.19 ± 0.75%; mortality at 10 ppm ([2]; Coptotermes formosanus, 288 h, C. formosanus, 10 ppm, 12-day exposure, read-out: % Mortality (±SE)): 11.3 ± 6.55%; mortality at 100 ppm ([2]; Coptotermes formosanus, 288 h, C. formosanus, 100 ppm, 12-day exposure, read-out: % Mortality (±SE)): 100%; mortality at 1000 ppm ([2]; Coptotermes formosanus, 288 h, C. formosanus, 1,000 ppm, 12-day exposure, read-out: % Mortality (±SE)): 93.5 ± 6.55% |
